Data set [1] is described as follows: Oxygen content decay of O2-saturated dispersions on ambient air equilibration. The settings on record: first-order fit, SDS 9 mM, Triton X-100 3.8 mM; for Release rate (oxygen): PFTD-PEG 3.8 mM. An excerpt: Another commonly used method consists in measuring the rate of decrease of the oxygen concentration of a given micellar solution from O2-saturation to equilibrium with ambient air. In the case of perfluorinated micelles, any observed difference in deoxygenation rate can be directly related the diffusion of O2 from the perfluorinated core to the aqueous medium while oxygen dissolved in the saturated dispersant (i.e. water) escapes to the atmosphere.
To assess the dioxygen release capacity of PFTD-PEG micelles, colloids (4 mL, c=3.8 mM and 7.6 mM) were pre-saturated with dioxygen under agitation in a sealed round-bottom flask. After saturation, agitation was stopped and the PFTD-PEG micellar suspension was left to equilibrate with ambient air. Evolution of dioxygen concentration in the medium over time was recorded using a dissolved dioxygen sensor.
In this equation, y0 corresponds to the value of y at t=0 s while A corresponds to the amplitude of the curve such that A=Plateau−y0. This model provides essential parameters such as the oxygen half-life and the oxygen release rate from the different micellar suspensions.

Data set [2] can be described thus: Oxygen release from O2-saturated colloid injected into degassed water. The data set is classed as physicochemical. The settings on record: 200 μL of 7.6 mM surfactant colloid into degassed water. The procedure:
To this end, a small volume of oxygen-saturated micelle colloid was injected with variable PFTD-PEG concentrations into a large volume of degassed water and the release of oxygen was monitored by continuous electrochemical monitoring over time (FIG. 3A). From this set of experiments, a clear correlation between the micelle concentration and the amount of released oxygen was observed. In fact, 15 min after addition of 200 μL of a 5, 10, or 20 mg mL^−1 PFTD-PEG colloid to 100 mL of degassed water, the oxygen concentration reached values of 2.9, 4.3, and 5.6 μM, respectively. As a reference, the oxygen concentration reached only 1.1 μM when the same volume of oxygen-saturated water was added instead of the micelle colloid. The effect of the fluorinated PFTD-PEG micelles on oxygen delivery was compared to that of micelles obtained from commonly used amphiphiles, namely sodium dodecyl sulfate (SDS) and Triton X100.

Two compounds from patent publication US20260199236A1, “PERFLUORINATED MICELLES AND MEDICAL USES THEREOF” (COMMISSARIAT A L'ENERGIE ATOMIQUE ET AUX ENERGIES …, priority 2022, published 2026) can be followed below.

Take `CCCCCCCCCCCCOS(=O)(=O)[O-].[Na+]` [SDS, sodium dodecyl sulfate]: the “Release rate (oxygen)” value in data set [1] is 2.61 ± 0.03 10^−4 s^−1. Also, in data set [2], the oxygen concentration is given as 2.7 mM.
Consider Triton X-100, for which the “Release rate (oxygen)” value in data set [1] was 2.49 ± 0.04 10^−4 s^−1. Also, the “t1/2 (oxygen half-life)” value in data set [1] (PFTD-PEG 3.8 mM (10 mg mL^−1)) came to 46.422 ± 0.832 min. The compound further came in with an oxygen concentration in data set [2] of 3.6 mM.
